# Measured values published in patent US4871740A, “Glycyrrhetic acid derivatives and use thereof” (Sanwa Kagaku Kenkyusho Co., Ltd., priority 1986, dated 1989).
# Counter-ions that a name gives are not always drawn.
# Legend:
# stress ulcer in rats = assay: Action to stress ulcer in rats (restraint and water immersion); format: in vivo, Male Wister rats; details: Rattus norvegicus, po, 30 minutes before restraint, inhibition ratio, read-out: Ulcer Index (%)
# Experimental: (Action to stress ulcer in rats)
# Male Wister rats weighing about 180 g (age: 6 weeks) were used for this experiment.
# Ten rats in each group were deprived of food for 24 hours before the experiment. They were immobilized in a restraint cage and immersed for 7 hours to the height of the xiphoid in a water bath kept at 23±1°C. After inflation with 10 ml of 1% formalin, the isolated stomach was opened along the greater curvature. The ulcer index (UI) was determined as the sum of the length (mm) of each erosion per rat. Each of the compounds to be tested was suspended in 5% gum arabic solution and given orally 30 minutes before restraint. Control animals received the same solution without any drug or the test compound.
# (§1) Inhibition ratio is expressed as follows. [formula]
# gastric necrosis in rats = assay: Action to gastric necrosis in rats (absolute ethanol); format: in vivo, Male Sprague-Dewley rats; details: po, 1 hour before absolute ethanol, inhibition ratio
# Experimental: (Action to gastric necrosis in rats)
# Male Sprague-Dewley rats weighing about 250 g were used for this experiment.
# Ten rats in each group were deprived of food for 24 hours before the experiment. Each of the compounds to be tested was suspended in 5% gum arabic solution and given orally to the test animal. After 1 hours from the administration of the compound. 1 ml of absolute ethanol was administered orally and the animals were killed 1 hour later from the ethanol administration. After inflation with 10 ml of 1% formalin, the isolated stomach was opened along the greater curvature. The ulcer index (UI) was determined as the sum of the length (mm) of each erosion per rat. […]. Control animals received the same solution without any drug or the test compound.
# as §1
SMILES,inhibition in vivo at 25 mg/kg (stress ulcer in rats) [%],inhibition in vivo at 50 mg/kg (stress ulcer in rats) [%],inhibition in vivo at 100 mg/kg (stress ulcer in rats) [%],inhibition in vivo at 12.5 mg/kg (stress ulcer in rats) [%],Ulcer Index (%) (gastric necrosis in rats; 25 mg/kg),Ulcer Index (%) (gastric necrosis in rats; 50 mg/kg),Ulcer Index (%) (gastric necrosis in rats; 100 mg/kg)
"COc1ccccc1N1CCN(C(=O)[C@@]2(C)CC[C@]3(C)CC[C@]4(C)C(=CC[C@@H]5[C@@]6(C)CC[C@H](O)C(C)(C)[C@@H]6CC[C@]54C)[C@@H]3C2)CC1 [Compound 2i, 1-(3β-hydroxy-18β-olean-12-en-30-oyl)-4-(o-methoxyphenyl)piperazine]",-18,4.9,46.4,,,,
"CC(C)=CCCC(C)=CCSCCNC(=O)[C@@]1(C)CC[C@]2(C)CC[C@]3(C)C(=CC[C@@H]4[C@@]5(C)CC[C@H](OC(=O)/C=C\C(=O)O)C(C)(C)[C@@H]5CC[C@]43C)[C@@H]2C1 [Compound 4a, N-[2-(3,7-Dimethyl-2,6-octadien-1-ylthio)ethyl]-3β-(3-carboxy-cis-propenoyloxy)-18β-olean-12-en-30-amide sodium salt]",21.1,58.2,73.1,,,,
CC(C)=CCCC(C)=CCCC(C)=CCSCCNC(=O)[C@@]1(C)CC[C@]2(C)CC[C@]3(C)C(=CC[C@@H]4[C@@]5(C)CC[C@H](OC(=O)/C=C\C(=O)O)C(C)(C)[C@@H]5CC[C@]43C)[C@@H]2C1 [Compound 4b],51,62.6,60.5,,,,
CC(C)=CCCC(C)=CCCC(C)=CCCC(C)=CCSCCNC(=O)[C@@]1(C)CC[C@]2(C)CC[C@]3(C)C(=CC[C@@H]4[C@@]5(C)CC[C@H](OC(=O)/C=C\C(=O)O)C(C)(C)[C@@H]5CC[C@]43C)[C@@H]2C1 [Compound 4c],30.5,46.8,61,33.3,43.3,66.1,48.9
CC(C)=CCCC(C)=CCCC(C)=CCCC(C)=CCCC(C)=CCCC(C)=CCCC(C)=CCCC(C)=CCCC(C)=CCSCCNC(=O)C1(C)CCC2(C)CCC3(C)C(=CCC4C5(C)CCC(OC(=O)C=CC(=O)O)C(C)(C)C5CCC43C)C2C1 (stereo not shown) [Compound 4d],55.4,42.1,56.2,33.9,31.7,20.6,39.2
CC(C)=CCCC(C)=CCCC(C)=CCCC(C)=CCCC(C)=CCCC(C)=CCCC(C)=CCCC(C)=CCCC(C)=CCCC(C)=CCSCCNC(=O)C1(C)CCC2(C)CCC3(C)C(=CCC4C5(C)CCC(OC(=O)C=CC(=O)O)C(C)(C)C5CCC43C)C2C1 (stereo not shown) [Compound 4e],44.7,53.5,60.5,50,21.3,-9.5,-34.7
CC(=CCSCCNC(=O)[C@@]1(C)CC[C@]2(C)CC[C@]3(C)C(=CC[C@@H]4[C@@]5(C)CC[C@H](OC(=O)/C=C\C(=O)O)C(C)(C)[C@@H]5CC[C@]43C)[C@@H]2C1)CCCC(C)CCCC(C)CCCC(C)C (stereo partly shown) [Compound 4f],16.5,4.3,34.5,,,,
CC(C)=CCCC(C)=CCCC(C)=CCN1CCN(C(=O)[C@@]2(C)CC[C@]3(C)CC[C@]4(C)C(=CC[C@@H]5[C@@]6(C)CC[C@H](OC(=O)/C=C\C(=O)O)C(C)(C)[C@@H]6CC[C@]54C)[C@@H]3C2)CC1 [Compound 4g],22.5,21.6,,11.7,,,
CC(C)=CCCC(C)=CCCC(C)=CCOC(=O)[C@@]1(C)CC[C@]2(C)CC[C@]3(C)C(=CC[C@@H]4[C@@]5(C)CC[C@H](OC(=O)/C=C\C(=O)O)C(C)(C)[C@@H]5CC[C@]43C)[C@@H]2C1 [Compound 4h],6.1,35.7,,8,,,
COc1ccccc1N1CCN(C(=O)[C@@]2(C)CC[C@]3(C)CC[C@]4(C)C(=CC[C@@H]5[C@@]6(C)CC[C@H](OC(=O)/C=C\C(=O)O)C(C)(C)[C@@H]6CC[C@]54C)[C@@H]3C2)CC1 [Compound 4i],24.4,61.4,76.5,,,,
CC(C)=CCCC(C)=CCCC(C)=CCCC(C)=CCCC(C)=CCCC(C)=CCCC(C)=CCCC(C)=CCCC(C)=CCCC(C)=CCSCCNC(=O)C1(C)CCC2(C)CCC3(C)C(=CC(=O)C4C5(C)CCC(OC(=O)C=CC(=O)O)C(C)(C)C5CCC43C)C2C1 (stereo not shown) [Compound 4k],45.5,43.6,56.4,48.5,58.7,10.9,14.3
COc1ccccc1N1CCN(C(=O)[C@@]2(C)CC[C@]3(C)CC[C@]4(C)C(=CC(=O)[C@@H]5[C@@]6(C)CC[C@H](OC(=O)/C=C\C(=O)O)C(C)(C)[C@@H]6CC[C@]54C)[C@@H]3C2)CC1 [Compound 4l],25.9,31.7,,6.3,,,
"COc1ccccc1N1CCN(C(=O)[C@@]2(C)CC[C@]3(C)CC[C@]4(C)C(=CC[C@@H]5[C@@]6(C)CC[C@H](OC(=O)CCC(=O)O)C(C)(C)[C@@H]6CC[C@]54C)[C@@H]3C2)CC1 [Compound 4m, sodium salt]",9.5,26.5,23.2,,,,
"CC1(C)[C@@H](OCC(=O)O)CC[C@]2(C)[C@H]3CC=C4[C@@H]5C[C@@](C)(C(=O)O)CC[C@]5(C)CC[C@@]4(C)[C@]3(C)CC[C@@H]12 [Compound 6, 3β-(carboxymethoxy)-18β-olean-12-en-30-oic acid disodium salt]",7.2,42.5,59.8,,,,
"CC1(C)[C@@H](OCCC(=O)O)CC[C@]2(C)[C@H]3CC=C4[C@@H]5C[C@@](C)(C(=O)O)CC[C@]5(C)CC[C@@]4(C)[C@]3(C)CC[C@@H]12 [Compound 9, 3β-(2-Carboxyethoxy)-18β-olean-12-en-30-oic acid disodium salt]",-0.7,11.8,26.1,,,,
